In DBAASP:
Converted amounts (≈) assume the structure as drawn.

Experiments:
Experiment in all cases: ≥ marks a high value that may be exact or a test limit, other limits are often not marked, values filed in µg/mL are converted to µM
[1] = test system: Escherichia coli BL21
[2] = test system: Pseudomonas aeruginosa PAO1
[3] = test system: Staphylococcus aureus USA 300
[4] = test system: Streptococcus pyogenes M1T1 5448
[5] = test system: Candida albicans
[6] = test system: Pseudomonas aeruginosa ATCC 27853
[7] = test system: Staphylococcus aureus ATCC 49476
[8] = test system: Staphylococcus aureus MR

Compound | MIC [1] [µM] | MIC [2] [µM] | MIC [3] [µM] | MIC [4] [µM] | MIC [5] [µM] | MIC [6] [µM] | MIC [7] [µM] | MIC [8] [µM]
CC[C@H](C)[C@H](NC(=O)[C@H](CCCCN)NC(=O)[C@H](CCCCN)NC(=O)CNC(=O)[C@H](CCC(=O)O)NC(=O)[C@H](CCC(N)=O)NC(=O)[C@@H](NC(=O)[C@H](CCCCN)NC(=O)[C@H](CCCCN)NC(=O)[C@H](CCCCN)NC(=O)[C@H](CC(C)C)NC(=O)[C@H](CCCN=C(N)N)NC(=O)[C@H](CCC(N)=O)NC(=O)[C@H](Cc1ccccc1)NC(=O)[C@@H](NC(=O)[C@H](CCCCN)NC(=O)[C@H](CCC(=O)O)NC(=O)[C@@H](NC(=O)CNC(=O)[C@H](C)N)[C@@H](C)O)[C@@H](C)CC)[C@@H](C)CC)C(=O)N[C@@H](C)C(=O)N[C@@H](CCCCN)C(=O)N[C@@H](CCCN=C(N)N)C(=O)N[C@@H](C)C(=O)N[C@@H](Cc1c[nH]c2ccccc12)C(=O)O [AGTEKIFQRLKKKIQEGKKIAKRAW] | 1 (≈ 2.96 µg/mL) | 64 (≈ 189 µg/mL) | 8 (≈ 23.7 µg/mL) | 0.25 (≈ 0.739 µg/mL) | – | – | – | –
CC[C@H](C)[C@H](NC(=O)[C@H](CCCN=C(N)N)NC(=O)[C@H](CCC(N)=O)NC(=O)[C@@H](NC(=O)[C@H](Cc1c[nH]c2ccccc12)NC(=O)[C@H](C)N)[C@@H](C)O)C(=O)N[C@@H](CCCCN)C(=O)N[C@@H](C)C(=O)N[C@@H](Cc1ccc(O)cc1)C(=O)N[C@@H](CC(C)C)C(=O)N[C@@H](CCCN=C(N)N)C(=O)N[C@@H](CCCN=C(N)N)C(=O)N[C@@H](CCC(=O)O)C(=O)N[C@H](C(=O)N[C@@H](CCCN=C(N)N)C(=O)N[C@@H](CCCCN)C(=O)N[C@@H](CCCN=C(N)N)C(=O)NCC(=O)N[C@@H](CCCN=C(N)N)C(=O)N[C@@H](CCCCN)C(=O)N[C@@H](C)C(=O)N[C@H](C(=O)N[C@H](C(=O)N[C@@H](C)C(=O)N[C@@H](Cc1c[nH]c2ccccc12)C(=O)O)[C@@H](C)CC)C(C)C)[C@@H](C)CC [AWTQRIKAYLRREIRKRGRKAVIAW] | 2 (≈ 6.25 µg/mL) | 8 (≈ 25 µg/mL) | – | 2 (≈ 6.25 µg/mL) | – | – | – | –
CC[C@H](C)[C@H](NC(=O)[C@H](C)NC(=O)[C@H](CCCCN)NC(=O)CNC(=O)[C@H](C)NC(=O)[C@H](CO)NC(=O)[C@H](Cc1ccccc1)NC(=O)[C@H](CC(C)C)NC(=O)CNC(=O)CNC(=O)[C@H](C)NC(=O)[C@H](C)NC(=O)[C@H](Cc1cnc[nH]1)NC(=O)[C@H](Cc1cnc[nH]1)NC(=O)[C@@H](NC(=O)[C@@H](N)Cc1ccccc1)[C@@H](C)CC)C(=O)N[C@@H](Cc1cnc[nH]1)C(=O)N[C@@H](CCCN=C(N)N)C(=O)N[C@@H](CC(C)C)C(=O)N[C@H](C(=O)N[C@@H](CCCN=C(N)N)C(=O)N[C@@H](CCCN=C(N)N)C(=O)N[C@@H](CCCN=C(N)N)C(=O)N[C@@H](CCCN=C(N)N)C(=O)N[C@@H](CCCN=C(N)N)C(=O)O)[C@@H](C)CC [FIHHAAGGLFSAGKAIHRLIRRRRR] | – | – | – | – | 44.2 (≈ 128 µg/mL) | 177 (≈ 512 µg/mL) | ≥ 177 | ≥ 177
CC[C@H](C)[C@H](NC(=O)[C@H](CCCN=C(N)N)NC(=O)[C@H](CCC(N)=O)NC(=O)[C@H](Cc1c[nH]c2ccccc12)NC(=O)CNC(=O)[C@H](C)N)C(=O)N[C@@H](CCCCN)C(=O)N[C@@H](C)C(=O)N[C@@H](Cc1ccc(O)cc1)C(=O)N[C@@H](CC(C)C)C(=O)N[C@@H](CCCN=C(N)N)C(=O)N[C@@H](CCCN=C(N)N)C(=O)N[C@@H](CCC(=O)O)C(=O)N[C@H](C(=O)N[C@@H](CCCN=C(N)N)C(=O)N[C@@H](CCCCN)C(=O)N[C@@H](CCCN=C(N)N)C(=O)NCC(=O)N[C@@H](CCCN=C(N)N)C(=O)N[C@@H](CCCCN)C(=O)N[C@@H](C)C(=O)N[C@H](C(=O)N[C@H](C(=O)N[C@@H](C)C(=O)N[C@@H](Cc1c[nH]c2ccccc12)C(=O)O)[C@@H](C)CC)C(C)C)[C@@H](C)CC [AGWQRIKAYLRREIRKRGRKAVIAW] | 1 (≈ 3.08 µg/mL) | 2 (≈ 6.17 µg/mL) | – | 2 (≈ 6.17 µg/mL) | – | – | – | –
CC[C@H](C)[C@H](N)C(=O)N[C@H](C(=O)NCC(=O)NCC(=O)N[C@@H](CC(C)C)C(=O)N[C@@H](Cc1ccccc1)C(=O)N[C@@H](CO)C(=O)N[C@@H](C)C(=O)NCC(=O)N[C@@H](CCCCN)C(=O)N[C@@H](C)C(=O)N[C@H](C(=O)N[C@@H](Cc1cnc[nH]1)C(=O)N[C@@H](CCCN=C(N)N)C(=O)N[C@@H](CC(C)C)C(=O)N[C@H](C(=O)N[C@@H](CCCN=C(N)N)C(=O)N[C@@H](CCCN=C(N)N)C(=O)N[C@@H](CCCN=C(N)N)C(=O)N[C@@H](CCCN=C(N)N)C(=O)N[C@@H](CCCN=C(N)N)C(=O)O)[C@@H](C)CC)[C@@H](C)CC)[C@@H](C)CC [IIGGLFSAGKAIHRLIRRRRR] | – | – | – | – | 26.2 (≈ 64 µg/mL) | 105 (≈ 256 µg/mL) | ≥ 52.3 | 26.2 (≈ 64 µg/mL)
